In US20130090333A1, “BENZOXAZINE DERIVATIVES AS CRAC MODULATORS” (Hoffmann-La Roche Inc., priority 2011, published 2013):

Tested on: T cell IL-2 production in human whole blood
Assay: Human Whole Blood Assay (inhibition of T cell IL-2 production)
Assay type: cell-based
Conditions: T-cell, 10 μM Thapsigargin overnight, plasma IL-2 by AlphaLISA, read-out: HWB
Protocol: Inhibition of T cell IL-2 production CRAC compounds were tested in human whole blood from normal donors. 200 μl of human whole blood was aliquoted into each well of a round bottom 96 well plate. Concentration-response curves were generated for test compounds and CsA (as controls) by performing serial dilutions of the compounds and incubating each concentration in a single well for 30 min (experiment was performed in triplicate). Following incubation, the blood was stimulated with 10 μM Thapsigargin (SIGMA) overnight at 37° C. IL-2 concentrations in the plasma were determined by AlphaLISA IL-2 assay (Perkin Elmer). Data analysis was performed using GraphPad PRISMS.

Row | IC50 [nM] | Compound
1 | 3220 | Cc1ccc(C(F)(F)F)cc1-c1ccc2c(c1)OCC(c1c(F)cccc1F)N2 (stereo not drawn) [Example 4, 3-(2,6-difluoro-phenyl)-7-(2-methyl-5-trifluoromethyl-phenyl)-3,4-dihydro-2H-benzo[1,4]oxazine]
2 | 910 | Cn1nc(C(F)(F)F)cc1-c1ccc2c(c1)OCC(c1c(F)cccc1F)N2 (stereo not drawn) [Example 5, 3-(2,6-Difluoro-phenyl)-7-(2-methyl-5-trifluoromethyl-2H-pyrazol-3-yl)-3,4-dihydro-2H-benzo[1,4]oxazine]
3 | 510 | CCn1nc(-c2cccnc2)nc1-c1ccc2c(c1)OCC(c1c(F)cccc1F)N2 (stereo not drawn) [Example 10, 3-(2,6-Difluoro-phenyl)-7-(2-ethyl-5-pyridin-3-yl-2H-[1,2,4]triazol-3-yl)-3,4-dihydro-2H-benzo[1,4]oxazine]
4 | 1820 | Cc1sc(-c2ccccn2)nc1-c1ccc2c(c1)OCC(c1c(F)cccc1F)N2 (stereo not drawn) [Example 11, 3-(2,6-Difluoro-phenyl)-7-(5-methyl-2-pyridin-2-yl-thiazol-4-yl)-3,4-dihydro-2H-benzo[1,4]oxazine]
5 | 1940 | CCc1sc(-c2ccccn2)nc1-c1ccc2c(c1)OCC(c1c(F)cccc1F)N2 (stereo not drawn) [Example 13, 3-(2,6-Difluoro-phenyl)-7-(5-ethyl-2-pyridin-2-yl-thiazol-4-yl)-3,4-dihydro-2H-benzo[1,4]oxazine]
6 | 6150 | CCc1cc(-c2nc(-c3ccc4c(c3)OCC(c3c(F)cccc3F)N4)c(CC)s2)ccn1 (stereo not drawn) [Example 18, 3-(2,6-Difluoro-phenyl)-7-[5-ethyl-2-(2-ethyl-pyridin-4-yl)-thiazol-4-yl]-3,4-dihydro-2H-benzo[1,4]oxazine]
7 | 650 | CCc1sc(-c2ncco2)nc1-c1ccc2c(c1)OCC(c1c(F)cccc1F)N2 (stereo not drawn) [Example 19, 3-(2,6-Difluoro-phenyl)-7-(5-ethyl-2-oxazol-2-yl-thiazol-4-yl)-3,4-dihydro-2H-benzo[1,4]oxazine]
8 | 1000 | Cc1ccc(-c2ncco2)cc1-c1ccc2c(c1)OCC(c1c(F)cccc1F)N2 (stereo not drawn) [Example 28, 3-(2,6-Difluoro-phenyl)-7-(2-methyl-5-oxazol-2-yl-phenyl)-3,4-dihydro-2H-benzo[1,4]oxazine]

Tested on: IL-2 production in Jurkat cell (ATCC)
Assay: Jurkat IL-2 Production Assay
Assay type: cell-based
Conditions: Homo sapiens, Jurkat cells, 18-20 h incubation, serum/stimulant variant (1% FBS/PHA or 30% FBS/PMA+ionomycin) not given
Protocol: Jurkat IL-2 Production Assay Cell: Jurkat cell (ATCC) was grown in RPMI 1640 with 10% FBS and 1% penicillin/streptomycin. The cell density was kept at 1.2˜1.8×10^6/mL in culture flask before seeding into culture plate, and the cell density in the plate was 0.5×10^6/2004/well. Culture Media: RPMI 1640 with 1% FBS or 30% FBS for high serum assay. Test Compound: Serial dilution was done in 100% DMSO, and intermediate dilution was done with RPMI 1640 medium with 1% FBS. The DMSO final concentration in culture well was 0.25%. Stimulant: PHA (Sigma#L9017-10MG) was used for the assay with 1% FBS in culture medium, and added after 10 minutes exposure of cell to compound/DMSO. The PHA final concentration in culture well was 5 μg/mL. PMA (Sigma# P-8139 5MG)/Ionomycin (Sigma# I0634-5MG) was used for the assay with 30% FBS in culture medium, and added at same time point as the 1% FBS culture assay. The final concentration of PMA was 50 ng/mL, and Ionomycin final concentration was 500 ng/mL. Incubation: At 37° C. with 5% CO2 and 95% humidity for 18 h˜20 h. IC50: IC50 was calculated with the data analysis software XLfit4, General Pharmacology model 251.

Row | IC50 [nM] | Compound
9 | 120 | Cc1cc(C(F)(F)F)ccc1-c1ccc2c(c1)OCC(c1c(F)cccc1F)N2 (stereo not drawn) [Example 1, 3-(2,6-Difluoro-phenyl)-7-(2-methyl-4-trifluoromethyl-phenyl)-3,4-dihydro-2H-benzo[1,4]oxazine]
10 | 100 | Cc1ccc(C(F)(F)F)cc1-c1ccc2c(c1)OCC(c1c(F)cccc1F)N2 (stereo not drawn) [Example 4, 3-(2,6-difluoro-phenyl)-7-(2-methyl-5-trifluoromethyl-phenyl)-3,4-dihydro-2H-benzo[1,4]oxazine]
11 | 100 | Cn1nc(C(F)(F)F)cc1-c1ccc2c(c1)OCC(c1c(F)cccc1F)N2 (stereo not drawn) [Example 5, 3-(2,6-Difluoro-phenyl)-7-(2-methyl-5-trifluoromethyl-2H-pyrazol-3-yl)-3,4-dihydro-2H-benzo[1,4]oxazine]
12 | 110 | CCn1nc(-c2cnccn2)cc1-c1ccc2c(c1)OCC(c1c(F)cccc1F)N2 (stereo not drawn) [Example 8, 3-(2,6-Difluoro-phenyl)-7-(2-ethyl-5-pyrazin-2-yl-2H-pyrazol-3-yl)-3,4-dihydro-2H-benzo[1,4]oxazine]
13 | 310 | Cn1nc(-c2cccnc2)nc1-c1ccc2c(c1)OCC(c1c(F)cccc1F)N2 (stereo not drawn) [Example 9, 3-(2,6-Difluoro-phenyl)-7-(2-methyl-5-pyridin-3-yl-2H-[1,2,4]triazol-3-yl)-3,4-dihydro-2H-benzo[1,4]oxazine]
14 | 90 | CCn1nc(-c2cccnc2)nc1-c1ccc2c(c1)OCC(c1c(F)cccc1F)N2 (stereo not drawn) [Example 10, 3-(2,6-Difluoro-phenyl)-7-(2-ethyl-5-pyridin-3-yl-2H-[1,2,4]triazol-3-yl)-3,4-dihydro-2H-benzo[1,4]oxazine]
15 | 120 | Cc1sc(-c2ccccn2)nc1-c1ccc2c(c1)OCC(c1c(F)cccc1F)N2 (stereo not drawn) [Example 11, 3-(2,6-Difluoro-phenyl)-7-(5-methyl-2-pyridin-2-yl-thiazol-4-yl)-3,4-dihydro-2H-benzo[1,4]oxazine]
16 | 60 | Cc1sc(-c2cnccn2)nc1-c1ccc2c(c1)OCC(c1c(F)cccc1F)N2 (stereo not drawn) [Example 15, 3-(2,6-difluorophenyl)-7-(5-methyl-2-(pyrazin-2-yl)thiazol-4-yl)-3,4-dihydro-2H-benzo[b][1,4]oxazine]
17 | 280 | COc1cc(C)c(-c2ccc3c(c2)OCC(c2c(F)cccc2F)N3)cn1 (stereo not drawn) [Example 21, 3-(2,6-Difluoro-phenyl)-7-(6-methoxy-4-methyl-pyridin-3-yl)-3,4-dihydro-2H-benzo[1,4]oxazine]
18 | 90 | CCS(=O)(=O)c1cc(C)c(-c2ccc3c(c2)OCC(c2c(F)cccc2F)N3)cn1 (stereo not drawn) [Example 22, 3-(2,6-difluorophenyl)-7-(6-(ethylsulfonyl)-4-methylpyridin-3-yl)-3,4-dihydro-2H-benzo[b][1,4]oxazine]
19 | 320 | Cc1cc(Cl)ncc1-c1ccc2c(c1)OCC(c1c(F)cccc1F)N2 (stereo not drawn) [Example 23, 7-(6-Chloro-4-methyl-pyridin-3-yl)-3-(2,6-difluoro-phenyl)-3,4-dihydro-2H-benzo[1,4]oxazine]
20 | 340 | Cc1cc(-c2ncco2)ncc1-c1ccc2c(c1)OCC(c1c(F)cccc1F)N2 (stereo not drawn) [Example 24, 3-(2,6-Difluoro-phenyl)-7-(4-methyl-6-oxazol-2-yl-pyridin-3-yl)-3,4-dihydro-2H-benzo[1,4]oxazine]
21 | 660 | Cc1cc(-c2cnc(N)nc2)ncc1-c1ccc2c(c1)OCC(c1c(F)cccc1F)N2 (stereo not drawn) [Example 25, 5-(5-(3-(2,6-difluorophenyl)-3,4-dihydro-2H-benzo[b][1,4]oxazin-7-yl)-4-methylpyridin-2-yl)pyrimidin-2-amine]
22 | 210 | Cc1ncc(-c2cc(C)c(-c3ccc4c(c3)OCC(c3c(F)cccc3F)N4)cn2)s1 (stereo not drawn) [Example 26, 3-(2,6-difluorophenyl)-7-(4-methyl-6-(2-methylthiazol-5-yl)pyridin-3-yl)-3,4-dihydro-2H-benzo[b][1,4]oxazine]
23 | 670 | Cc1cc(-c2nnn(C)n2)ncc1-c1ccc2c(c1)OCC(c1c(F)cccc1F)N2 (stereo not drawn) [Example 27, 3-(2,6-difluorophenyl)-7-(4-methyl-6-(2-methyl-2H-tetrazol-5-yl)pyridin-3-yl)-3,4-dihydro-2H-benzo[b][1,4]oxazine]
24 | 220 | Cc1ccc(C(F)(F)F)cc1-c1ccc2c(c1)OCC(c1c(F)cccc1Cl)N2 (stereo not drawn) [Example 30, 3-(2-Chloro-6-fluoro-phenyl)-7-(2-methyl-5-trifluoromethyl-phenyl)-3,4-dihydro-2H-benzo[1,4]oxazine]
25 | 380 | COc1cc(C)c(-c2ccc3c(c2)OCC(c2c(F)cccc2Cl)N3)cn1 (stereo not drawn) [Example 33, 3-(2-Chloro-6-fluoro-phenyl)-7-(6-methoxy-4-methyl-pyridin-3-yl)-3,4-dihydro-2H-benzo[1,4]oxazine]
26 | 350 | Cn1nc(C(F)(F)F)cc1-c1ccc2c(c1)OCC(c1ccccc1Cl)N2 (stereo not drawn) [Example 34, 3-(2-chlorophenyl)-7-(1-methyl-3-(trifluoromethyl)-1H-pyrazol-5-yl)-3,4-dihydro-2H-benzo[b][1,4]oxazine]
27 | 730 | COc1cc(C)c(-c2ccc3c(c2)OCC(c2ccccc2Cl)N3)cn1 (stereo not drawn) [Example 35, 3-(2-chlorophenyl)-7-(6-methoxy-4-methylpyridin-3-yl)-3,4-dihydro-2H-benzo[b][1,4]oxazine]
28 | 90 | Cc1sc(-c2cccnc2)nc1-c1ccc2c(c1)OCC(c1ccccc1Cl)N2 (stereo not drawn) [Example 36, 3-(2-chlorophenyl)-7-(5-methyl-2-(pyridin-3-yl)thiazol-4-yl)-3,4-dihydro-2H-benzo[b][1,4]oxazine]
29 | 70 | CCc1sc(-c2cnccn2)nc1-c1ccc2c(c1)OCC(c1ccccc1Cl)N2 (stereo not drawn) [Example 37, 3-(2-chlorophenyl)-7-(5-ethyl-2-(pyrazin-2-yl)thiazol-4-yl)-3,4-dihydro-2H-benzo[b][1,4]oxazine]

Same assay, conditions: Jurkat cells, 18-20 h incubation, serum/stimulant variant (1% FBS/PHA or 30% FBS/PMA+ionomycin) not given

Row | IC50 [nM] | Compound
30 | 350 | (S)-3-(2,6-Difluoro-phenyl)-7-(2-methyl-4-trifluoromethyl-phenyl)-3,4-dihydro-2H-benzo[1,4]oxazine or (R)-3-(2,6-Difluoro-phenyl)-7-(2-methyl-4-trifluoromethyl-phenyl)-3,4-dihydro-2H-benzo[1,4]oxazine [Example 3]
